Counter-ions that a name gives are not always drawn.
System: IL-1α (cytokine expression in hTERT keratinocytes)
Test: In vitro assay: IL-1α in supernatants of IL-1β-treated hTERT keratinocytes (sandwich immunoassay, indexed to ATP viability)
Assay type: cell-based, human
Settings: for Avg IL-1α measurement: hTERT keratinocytes, 18 hrs, 6 replicates; for IL-1α reduction compared in words (significance groupings): 500 ppm, IL-1β treated hTERT keratinocytes, >95% confidence
Description: The following in vitro assay test was conducted to determine the effect of White Tea Extract, Panthenol and Glycyrrhizinate salt on cytokine expression in hTERT keratinocytes:
BACKGROUND: hTERT-keratinocytes are a telomerase-immortalized neonatal epidermal keratinocyte line. Cell cultures of this type are known in the literature and have been used as models for multiple pathways as shown in the following references: Shay and Wright; Carcinogenesis, vol 26; no 5, pp 867-74, 2005; Bodner, et. al., Science, vol 279 pp 349-52, 1998; Ramirez, et. al., Oncogene, 22; pp 433-44, 2002. These cells display many features characteristic of normal primary keratinocytes and respond to normal growth controls in vitro.
TEST PROTOCOL: all measures were run in replicate (n=6).
To ensure proper levels of the biological active molecules for the in vitro study, dilution studies are conducted and ATP is analyzed for the highest non-cytotoxic concentration. White Tea Extract (H1615 WS, lot 98680094S-005) at a level of 500 ppm, Panthenol (lot 10063909S-018) at a level of 500 ppm, and Glycyrrhizinate salt (Barnet 25908N297) at a level of 500 ppm are used for this study. ATP analysis is described below.
ATP analysis is conducted using Cell Titer-Glo. The CellTiter-Glo Luminescent Cell Viability Assay is obtained from Promega Corporation (Madison, Wis.). This assay is a homogeneous method for determining the number of viable cells in culture based on quantitation of ATP present, signaling the presence of metabolically active cells. After the final treatment and supernatants collected, the CellTiter-Glo reagent is added. The reagent is then transferred to a BD Falcon (Franklin Lakes, N.J.) Microtest 96-well Assay Plate (black, flat bottom, reference 353945, lot 041151). Luminescence is read on a Perkin Elmer Fluorimeter (Wallac Envision 2101 Multilabel Reader). Relative luminescence units are plotted in percent control versus treatment concentration.
hTERT cells are cultured in complete EpiLife (Cascade Biologics, Portland, Oreg.) culture media in T75 culture flasks (Falcon, Becton Dickinson Labware, Franklin Lakes, N.J.) under 37° C./5% CO2 conditions. […] 2 ml of the cell suspension (density 20,000/cm^2) are plated in each well of a 6-well culture dish (Falcon) and cultured under 37° C./5% CO2 conditions overnight. A complete media exchange is performed and the cells are again cultured overnight under 37° C./5% CO2 conditions. The culture media is removed and 2 ml of treatment are placed in each well and the cells are cultured for 18 hrs. For all legs other than Control, IL-1β is added to the treatment at 1 nanogram per mL (for 2 nanograms per treatment). After the treatment period, the cell culture supernatants are collected and analyzed immediately for Interleukin-1α with an R&D Systems (Minneapolis, Minn.) kit which deploys the quantitative sandwich immunoassay technique. ATP is measured from cell lysates an indicator of viability. IL-1α is indexed to cell viability to ensure a proper reading of actual activity.
TESTING: This test was conducted and the analysis of the data is as follows. Statistical differences among treatments for IL-1α were analyzed via JMP using a log-transform before the analysis of variance. The log-transform ensures that the response data are normally distributed and have equal variance. […]

[1] = 500 ppm ingredient + IL-1β 1 nanogram per mL, IL-1α indexed to cell viability

`CC(C)(CO)[C@@H](O)C(=O)NCCCO` [Panthenol] was tested, and the “Avg IL-1α measurement” value [1] was 24.41 and the “IL-1α reduction compared in words (significance groupings)” value was “not significantly different than the IL-1β treated cells”.

With `C[C@H]1C[C@H]2[C@@H]3CCC4=CC(=O)C=C[C@]4(C)[C@@]3(F)[C@@H](O)C[C@]2(C)[C@@]1(O)C(=O)CCl` [Clobetasol, reference compound] the “Avg IL-1α measurement” value (4.5 ppm + IL-1β, positive control) was 14.29.

With `CC1(C)[C@@H](O[C@H]2O[C@H](C(=O)O)[C@@H](O)[C@H](O)[C@H]2O[C@H]2O[C@@H](C(=O)O)[C@H](O)[C@@H](O)[C@@H]2O)CC[C@]2(C)[C@H]3C(=O)C=C4[C@@H]5C[C@@](C)(C(=O)O)CC[C@]5(C)CC[C@@]4(C)[C@]3(C)CC[C@@H]12` [Glycyrrhizinate salt] the “Avg IL-1α measurement” value [1] was 17.57 and the “IL-1α reduction compared in words (significance groupings)” value was “slightly higher IL-1α reduction”.

Source: patent US20120035557A1, “Personal Care Compositions Comprising A Multi-Active System For Down Regulating Cytokines Irritation” (priority 2010, published 2012)
